Data as given in patent US6140336A, “Spiro[2H-1-benzopyran-2,4'-piperidine]-4(3H)-one derivatives, acid addition salts thereof and pharmaceutical compositions containing them” (Richter Gedeon Vegyeszeti Gyar Rt., priority 1996, dated 2000).
Where a name gives a salt, the structure may show the parent alone. Read-outs that look alike come from different tables or passages of the source.

Key:
[1] = Stability of hydrogen maleate salt versus free base; type: physicochemical
[2] = type: in vivo, rats; conditions: for ED50: i.v.
Experimental: These experiments were carried out on rats (with a body weight of 180-200 g) anaesthetized by urethane (1.25 g/kg i.p.) in such a way that 50 μg/kg of aconitine [chemically acetyl benzoyl aconine] was injected to the tail vein then, the arrhythmic disturbances were observed on ERG II lead after 5 minutes [J. Med. Exp. 10, 93 (1964)].
The compounds to be tested for antiarrhythmic effect were intravenously (i.v.) administered 2 minutes, or orally one hour before aconitine.
The aconitine arrhythmia was evaluated in such a manner that the severity of arrhythmia was characterized by an increasing number and, after average calculation both in the control as well as in the tested group, the average of treated group was expressed as percentage of the control. The arrhythmia was characterized by the following scores: […]

[3] = Diazepam (DIA) induced anterograde amnesia, passive avoidance test; type: in vivo, NMRI mice; conditions: for inhibition in vivo at 0.1 mg/kg / inhibition in vivo at 10 mg/kg: Mus musculus, po, 1 h, read-out: Prevention %; for significantly antagonized the amnesic effect of diazepam (percentage): Table 1, p.o.; for antiamnesic effect (overall): overall conclusion from the amnesia tests; for protection against the amnesic effect of diazepam, lower versus higher dose: 0.1 mg/kg and 10 mg/kg p.o.
From the text: (§1) The biological activity of the compounds of formulas (I) and (Ia) was studied by using passive avoidance test. This test is one of the most widely used animal experimental model for investigating the effects of substances on the cognitive functions (learning and memory processes). This is based on inhibition of the genetically determined behavior of rodents (mice and rats) that they prefer dark space to light one. A single electric shock given in the dark box is employed as a memory trace, the retention and retrieval of which can be controlled after a shorter or longer period.
The passive avoidance test was carried out on NMRI mice with a body weight of 25-28 g. During the learning, preselected animals (mice entering into a dark space from an illuminated space within 30 s) were placed into an illuminated space. After entering into the dark space, the animal received within 30 s onto his paw an electric shock (1 mA for 3 s) causing an unpleasant sensation. The time of entry into the dark space (latency period) was measured. During the check, after 24 hours, the animals were again put back to the illuminated space and the time elapsed until entry into the dark space (retention time) was measured (limit time=300 s). The animals were intraperitoneally (i.p.) treated with 3 mg/kg of diazepam (chemically, 7-chloro-1,3-dihydro-1-methyl-5-phenyl-2H-1,4-benzodiazepin-2-one) 30 minutes before learning in order to induce anterograde amnesia. The compounds were orally (p.o.) administered in doses of 0.1 or 10 mg/kg, respectively one hour before the learning. The protective effect was calculated percentage value (P%) by using the following formula: [formula]
(§2) In the above formula, T means the measured retention time of animals treated as shown in the index or the measured retention time of untreated animals, respectively.

[4] = Electroshock (ECS) induced retrograde amnesia, passive avoidance test; type: in vivo, NMRI mice; conditions: for Prevention %: 2 hours after learning
From the text: as §1
In this test, the retrograde amnesia was induced on NMRI mice having a body weight of 24-26 g by using an auricular electroshock treatment of 20 mA for 0.2 s at one hour following the learning. The compounds to be tested were administered 2 hours after learning. The protective effect was calculated as percentage value (p%D) by using the following formula: [formula]
P%=Ttreated+ECS -Tplacebo+ECS /Tplacebo -Tplacebo+ECS
as §2

[5] = Normobaric hypoxia-induced memory deficiency model on rats; type: in vivo; conditions: 10 mg/kg oral
Experimental: (§3) Compound 4610351 has been investigated in detail both under in vitro and in vivo conditions. This compound evened 36% protection in an oral dose of 10 mg/kg in the normobaric hypoxia-induced memory deficiency model on rats; this surpassed the protective effect of 21% provided by 10 mg/kg oral dose of vinpocetine. […] On the basis of these investigations, compounds of formulas (I) and (Ia) can be utilized for the treatment of diseases and dementias accompanied by the impairment of cognitive processes (learning, memory), such as multiinfarct and Alzeimer type dementias, states following stroke, ischaemic injuries, sequels of trauma of the central nervous system, parkinsonism, Huntington's chorea or multiple sclerosis. The therapeutical doses of compounds of formulas (I) and (Ia) can range between 0.1 and 40 mg/kg of body weight given orally, daily once or several times.

[6] = tested on: neuronal calcium uptake (K^+ -induced); assay: K+ -induced 45Ca uptake by synaptosome preparation; type: biochemical
Experimental: as §3

[7] = tested on: neuronal calcium uptake (veratrine-induced); assay: Veratrine-induced 45Ca uptake by synaptosome preparation; type: biochemical
Experimental: as §3

[8] = 0.1 mg/kg p.o., one hour before learning, diazepam 3 mg/kg i.p., * = p < 0.05 vs diazepam control
[9] = 10 mg/kg p.o., one hour before learning, diazepam 3 mg/kg i.p., * = p < 0.05 vs diazepam control
[10] = 10 mg/kg p.o., * marks significance
[11] = 30 mg/kg p.o., one hour before aconitine

Row | SMILES | Inhibition (%) ([2]; 10 mg/kg i.v.) | inhibition in vivo at 0.1 mg/kg [3, 8] | inhibition in vivo at 10 mg/kg [3, 9] | significantly antagonized the amnesic effect of diazepam (percentage) [3] | Inhibition (%) ([2]; 30 mg/kg i.v.) | Inhibition (%) [2, 11] | antiamnesic effect (overall) [3] | further results
1 | O=C1CC2(CCN(Cc3ccccc3)CC2)Oc2ccccc21 |  |  |  |  |  |  |  | stability over the free base form [1]: higher stability
2 | CCCCc1oc2ccccc2c1C(=O)c1cc(I)c(OCCN(CC)CC)c(I)c1 [Amiodarone] | 70% |  |  |  |  |  |  | Inhibition (%) ([2]; 3.0 mg/kg i.v.): 13%; Inhibition (%) ([2]; 5.0 mg/kg i.v.): 29%; ED50 [2]: 7.04 mg/kg
3 | CCN1C[C@H]2CN(C)C[C@@H](C1)C2OC(=O)c1ccc(Cl)cc1 (stereo partly drawn) [Bisaramil, 3-methyl-7-ethyl-9α-(4-chlorobenzoyloxy)-3,7-diazabicyclo[3.3.1]nonane hydrochloride] |  |  |  |  |  |  |  | Inhibition (%) ([2]; 0.3 mg/kg i.v.): 20%; Inhibition (%) ([2]; 0.5 mg/kg i.v.): 48%; Inhibition (%) ([2]; 1.0 mg/kg i.v.): 91%; ED50 [2]: 0.49 mg/kg
4 | O=C1CC2(CCN(Cc3ccccc3)CC2)Oc2ccccc21 [Compound 4600592, 1'-Benzylspiro[2H-1-benzopyran-2,4'-piperidine]-4(3H)-one] | 3% | 144% | 92% | 105-176% | 19% | 0% |  | Prevention % ([4]; 1 mg/kg p.o.): 48%; Prevention % [4, 10]: 44%; protection in ECS-induced retrograde amnesia ([4]; mouse, in vivo): No considerable protection
5 | O=C1CC2(CCN(Cc3ccc(F)cc3)CC2)Oc2ccccc21 [Compound 4610282] |  | 131% | 24% | 105-176% |  |  | significant antiamnesic effect | protection in ECS-induced retrograde amnesia ([4]; 0.1 mg/kg (as printed in text)): 77%; Prevention % ([4]; 1 mg/kg p.o.): 77%; Prevention % [4, 10]: 29%
6 | O=C1CC2(CCN(Cc3ccc([N+](=O)[O-])cc3)CC2)Oc2ccccc21 [Compound 4610350] |  | 170% | 29% | 105-176% |  |  | significant antiamnesic effect | antiamnesic action in lower doses ([3]; 0.1 mg/kg p.o.): showed an antiamnesic action; antiamnesic action in higher doses ([3]; 10 mg/kg p.o.): inactive; Prevention % ([4]; 1 mg/kg p.o.): 0%; Prevention % [4, 10]: 8%
7 | O=C1CC2(CCN(Cc3ccc(Cl)cc3)CC2)Oc2ccccc21 [Compound 4610351] | 16% | 78% | 176% | 105-176% | 16% | 5% | significant antiamnesic effect | Prevention % ([4]; 1 mg/kg p.o.): 81%; Prevention % [4, 10]: 108%; reversal of ECS-caused amnesia ([4]; both doses): could significantly reverse the ECS-caused amnesia in both doses; reversal of ECS-caused amnesia ([4]; higher dose): 108%; protection, normobaric hypoxia-induced memory deficiency [5]: 36%; IC50 [6]: 45.6 µM; IC50 [7]: 4.5 µM
8 | O=C1CC2(CCN(Cc3ccc(Br)cc3)CC2)Oc2ccccc21 [Compound 4611109] |  | 92% | 0% |  |  |  |  | antiamnesic action in lower doses ([3]; 0.1 mg/kg p.o.): showed an antiamnesic action; antiamnesic action in higher doses ([3]; 10 mg/kg p.o.): inactive
9 | O=C1CC2(CC[N+](Cc3ccc([N+](=O)[O-])cc3)(Cc3ccc([N+](=O)[O-])cc3)CC2)Oc2ccccc21 [Compound 4611265] | 21% |  |  | 105-176% | 10% | 0% | significant antiamnesic effect | protection against the amnesic effect of diazepam, lower versus higher dose [3]: nearly the same protection; inhibition in vivo at 0.1 mg/kg [3]: 86%; inhibition in vivo at 10 mg/kg [3]: 134%
10 | CC(C)(C)c1ccc(CN2CCC3(CC2)CC(=O)c2ccccc2O3)cc1 [Compound 4611266, 1'-(4-tert-butylbenzyl)-spiro[2H-1-benzopyran-2,4'-piperidine]-4(3H)-one] | 21% | 159% | 105% | 105-176% | 3% | 0% | significant antiamnesic effect | protection against the amnesic effect of diazepam, lower versus higher dose [3]: nearly the same protection
11 | O=C1CC2(CC[N+](Cc3ccccc3)(Cc3ccccc3)CC2)Oc2ccccc21 [Compound 4611267, 1',1'-dibenzyl-spiro[2H-4(3H)-oxo-1-benzopyran-2,4'-piperidinium]hydrochloride] | 0% | 47% | 67% |  | 29% | 0% |  | 
12 | Cc1cccc(C)c1OCC(C)N (stereo not shown) [Mexiletine, 1-methyl-2-(2,6-xylyloxy)ethylamine] | 62% |  |  |  |  |  |  | Inhibition (%) ([2]; 1.0 mg/kg i.v.): 29%; Inhibition (%) ([2]; 3.0 mg/kg i.v.): 68%; ED50 [2]: 2.51 mg/kg
13 | C=C[C@H]1C[N@@]2CC[C@H]1C[C@@H]2[C@@H](O)c1ccnc2ccc(OC)cc12 [Quinidine, (S)-(6-methoxy-4-quinolinyl)-[(2R.4S.5R)-5-vinyl-2-quinuclidinyl]methanol] | 55% |  |  |  | 83% |  |  | Inhibition (%) ([2]; 0.3 mg/kg i.v.): 34%; ED50 [2]: 6.66 mg/kg
14 | NC(=O)[C@@H]1CCCN1C(=O)[C@H](Cc1c[nH]cn1)NC(=O)[C@@H]1CCC(=O)N1 [TRH, 5-oxo-L-prolyl-L-histidyl-L-proline amide, reference compound] |  |  |  |  |  |  |  | Prevention % ([4]; 1 mg/kg i.p.): 77%; Prevention % ([4]; 10 mg/kg i.p.): 35%
15 | CCOC(=O)C1=C[C@]2(CC)CCCN3CCc4c(n1c1ccccc41)[C@@H]32 [Vinpocetine, ethyl apovincaminate, reference compound] |  | 0% | 123% |  |  |  |  | protection, normobaric hypoxia-induced memory deficiency [5]: 21%
